From ChEMBL document CHEMBL5370626, “Targeting the Subpocket Enables the Discovery of Thiadiazole-Pyridazine Derivatives as Glutaminase C Inhibitors” (ACS Med Chem Lett, 2023)
Activity calls are given as the source filed them. The rule behind the calls is not given here.

Legend:
[1] = (§1) Inhibition of human recombinant GAC K320A mutant (73 to 598 residues ) expressed in Escherichia coli BL21 (DE3) cells incubated for 10 mins by fluorometric assay
A549 [2] = experiment: Antiproliferative activity against human A549 cells assessed as reduction in cell viability incubated for 72 hrs by Celltiter-glo assay; type: functional, cell-based; conditions: A549, 72 h
A549 [3] = experiment: Antitumor activity against human A549 cells xenografted in Balb/c nude mouse assessed as tumor growth inhibition at 100 mg/kg, po administered once daily 24 days relative to control; type: functional; conditions: A549, 576 h, time 24 day, read-out: TGI
[4] = target: T1, Glutaminase kidney isoform, mitochondrial (Homo sapiens) (UniProt O94925); experiment: Inhibition of GAC (unknown origin)
T1 sequence (whole entry): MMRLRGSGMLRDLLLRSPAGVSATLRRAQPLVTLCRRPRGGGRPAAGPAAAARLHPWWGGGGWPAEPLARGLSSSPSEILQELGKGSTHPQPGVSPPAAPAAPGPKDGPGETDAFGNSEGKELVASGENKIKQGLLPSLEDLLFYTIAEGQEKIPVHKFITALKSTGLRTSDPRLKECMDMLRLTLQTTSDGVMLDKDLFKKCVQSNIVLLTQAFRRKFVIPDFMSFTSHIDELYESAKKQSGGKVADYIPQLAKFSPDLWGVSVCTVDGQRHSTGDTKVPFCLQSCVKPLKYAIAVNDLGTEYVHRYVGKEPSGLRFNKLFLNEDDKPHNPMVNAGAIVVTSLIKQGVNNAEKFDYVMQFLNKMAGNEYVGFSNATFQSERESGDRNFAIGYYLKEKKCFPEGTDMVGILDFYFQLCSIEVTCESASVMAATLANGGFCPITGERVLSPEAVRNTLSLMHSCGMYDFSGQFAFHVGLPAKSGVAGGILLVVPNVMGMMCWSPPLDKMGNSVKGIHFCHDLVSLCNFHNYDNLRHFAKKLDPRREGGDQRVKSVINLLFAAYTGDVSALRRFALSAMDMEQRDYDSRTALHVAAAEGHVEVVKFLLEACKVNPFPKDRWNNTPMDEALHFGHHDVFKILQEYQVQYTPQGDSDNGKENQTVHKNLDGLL

Homo sapiens = organism: Homo sapiens; experiment: as §1
A549 [5] = experiment: Inhibition of colony formation in human A549 cells assessed as reduction of colony number measured after 4 days by crystal violet staining-based colony formation assay; type: functional, cell-based; conditions: dose 10-1000 nM, time 4.0 day
[6] = target: T1, Glutaminase kidney isoform, mitochondrial (Homo sapiens); experiment: Inhibition of human GAC in A549 cells assessed as reduction in glutamate level at 100 to 1000 nM incubated for 16 hrs by colorimetric assay; type: cell-based; conditions: dose 100-1000 nM
[7] = target: T1, Glutaminase kidney isoform, mitochondrial (Homo sapiens); experiment: Inhibition of human GAC in A549 cells assessed as induction of ROS level incubated for 16 hrs by DCFH-DA staining based flow cytometric analysis; type: cell-based; conditions: dose 100-1000 nM

EC50 [1] [nM] | IC50 (A549 [2]) [nM] | SMILES | also measured
4.54 | 108 | CNC(=O)c1cccc(CC(=O)Nc2nnc(N[C@@H]3CCN(c4cccnn4)C3)s2)c1 | 
5.36 | 1830 | CN(C)C(=O)c1cccc(CC(=O)Nc2nnc(N[C@@H]3CCN(c4cccnn4)C3)s2)c1 | 
1.7 | 1080 | O=C(Cc1cccc(O)c1)Nc1nnc(N[C@@H]2CCN(c3cccnn3)C2)s1 | 
> 1000 | 947 | O=C(Nc1nnc(N[C@@H]2CCN(c3cccnn3)C2)s1)C1(c2ccccc2)CC1 | 
16.4 | 18.8 | O=C(Cc1cccc(OC(F)(F)F)c1)Nc1ccc(CCCCc2nnc(NC(=O)Cc3ccccn3)s2)nn1 [TELAGLENASTAT] | inhibition in vivo at 100 mg/kg (A549 [3]): 34.5%
12.4 | 1710 | O=C(Cc1ccc(CO)cc1)Nc1nnc(N[C@@H]2CCN(c3cccnn3)C2)s1 | 
5.67 | 1180 | O=C(Cc1cccc(B(O)O)c1)Nc1nnc(N[C@@H]2CCN(c3cccnn3)C2)s1 | 
6.52 | 60.4 | O=C(Cc1cccc(C(F)(F)F)c1)Nc1nnc(N[C@@H]2CCN(c3cccnn3)C2)s1 | 
8 | 1070 | O=C(Cc1cccc(C(=O)NC2CC(F)(F)C2)c1)Nc1nnc(N[C@@H]2CCN(c3cccnn3)C2)s1 | 
1.89 | 732 | O=C(Cc1cccc(C(=O)O)c1)Nc1nnc(N[C@@H]2CCN(c3cccnn3)C2)s1 | INH [4]: 1.48 nM; INH (Homo sapiens): 157 nM
7.45 | 308 | O=C(Cc1ccco1)Nc1nnc(N[C@@H]2CCN(c3cccnn3)C2)s1 | 
3.42 | 103 | O=C(Cc1ccccc1)Nc1nnc(N[C@@H]2CCN(c3cccnn3)C2)s1 | 
4.26 | 1060 | O=C(Cc1cccc(C(=O)NC2CCC(F)(F)CC2)c1)Nc1nnc(N[C@@H]2CCN(c3cccnn3)C2)s1 | 
68.3 | 744 | O=C(CCc1ccccc1)Nc1nnc(N[C@@H]2CCN(c3cccnn3)C2)s1 | 
26.1 | 370 | O=C(Cc1ccc2ccccc2c1)Nc1nnc(N[C@@H]2CCN(c3cccnn3)C2)s1 | 
2.1 | 736 | N#Cc1cccc(CC(=O)Nc2nnc(N[C@@H]3CCN(c4cccnn4)C3)s2)c1 | 
0.793 | 12.9 | COC(=O)c1cccc(CC(=O)Nc2nnc(N[C@@H]3CCN(c4cccnn4)C3)s2)c1 | 
3.66 | > 10000 | O=C(Cc1cccc(-c2nnn[nH]2)c1)Nc1nnc(N[C@@H]2CCN(c3cccnn3)C2)s1 | 
8.2 | 1260 | CC1(C)OB(c2cccc(CC(=O)Nc3nnc(N[C@@H]4CCN(c5cccnn5)C4)s3)c2)OC1(C)C | 
9.01 | 498 | O=C(Cc1cccnc1)Nc1nnc(N[C@@H]2CCN(c3cccnn3)C2)s1 | 
14.2 | 4720 | O=C(Cc1ccc(C(=O)O)cc1)Nc1nnc(N[C@@H]2CCN(c3cccnn3)C2)s1 | 

EC50 [1] [nM] | IC50 (A549 [2]) [nM] | SMILES | also measured
3.13 | 1170 | O=C(Cc1cccc(C(=O)NCCF)c1)Nc1nnc(N[C@@H]2CCN(c3cccnn3)C2)s1 | 
3.31 | 60.4 | COc1cccc(CC(=O)Nc2nnc(N[C@@H]3CCN(c4cccnn4)C3)s2)c1 | 
3.8 | 5470 | Cc1oc(=O)oc1COC(=O)c1cccc(CC(=O)Nc2nnc(N[C@@H]3CCN(c4cccnn4)C3)s2)c1 | 
4.31 | 47.5 | COC(=O)c1ccc(CC(=O)Nc2nnc(N[C@@H]3CCN(c4cccnn4)C3)s2)cc1 | 
9.68 | > 10000 | O=C(Cc1cccc(P(=O)(O)O)c1)Nc1nnc(N[C@@H]2CCN(c3cccnn3)C2)s1 | 
9.89 | 13.8 | O=C(Cc1cccc(C(=O)OCC2CCC2)c1)Nc1nnc(N[C@@H]2CCN(c3cccnn3)C2)s1 | 
37.5 | 37.1 | Cc1ccccc1Oc1cccc(CC(=O)Nc2nnc(N[C@@H]3CCN(c4cccnn4)C3)s2)c1 | 
3.74 | 1010 | CCOC(=O)OCOC(=O)c1cccc(CC(=O)Nc2nnc(N[C@@H]3CCN(c4cccnn4)C3)s2)c1 | 
9.3 | 13.1 | O=C(Cc1cccc(Cc2ccccc2)c1)Nc1nnc(N[C@@H]2CCN(c3cccnn3)C2)s1 | 
3.25 | 12.6 | CO[C@H](C(=O)Nc1nnc(N[C@@H]2CCN(c3cccnn3)C2)s1)c1ccccc1 | 
4.03 | 9.28 | CC(C)OC(=O)c1cccc(CC(=O)Nc2nnc(N[C@@H]3CCN(c4cccnn4)C3)s2)c1 | inhibition (A549 [5]): Dose-Dependent Effect; inhibition [6]: Active; inhibition [7]: Dose-Dependent Effect
92.8 | 1.26 | O=C(Cc1cccc(OC(F)(F)F)c1)Nc1nnc(N[C@@H]2CCN(c3cccnn3)C2)s1 | 
5.18 | 222 | O=C(Cc1cccs1)Nc1nnc(N[C@@H]2CCN(c3cccnn3)C2)s1 | 
1.55 | 889 | CCOP(=O)(OCC)c1cccc(CC(=O)Nc2nnc(N[C@@H]3CCN(c4cccnn4)C3)s2)c1 | 
3.15 | > 10000 | CN(C)C(=O)COC(=O)c1cccc(CC(=O)Nc2nnc(N[C@@H]3CCN(c4cccnn4)C3)s2)c1 | 
2.68 | 103 | CCOC(=O)c1cccc(CC(=O)Nc2nnc(N[C@@H]3CCN(c4cccnn4)C3)s2)c1 | 
3.56 | 1090 | CC(=O)OCOC(=O)c1cccc(CC(=O)Nc2nnc(N[C@@H]3CCN(c4cccnn4)C3)s2)c1 | 
2.16 | 368 | NC(=O)c1cccc(CC(=O)Nc2nnc(N[C@@H]3CCN(c4cccnn4)C3)s2)c1 | 
2.63 | > 10000 | CS(=O)(=O)NC(=O)c1cccc(CC(=O)Nc2nnc(N[C@@H]3CCN(c4cccnn4)C3)s2)c1 | 
2.37 | 300 | O=C(Cc1cccc(F)c1)Nc1nnc(N[C@@H]2CCN(c3cccnn3)C2)s1 | 
12.9 | 51.4 | O=C(Cc1cccc(C(=O)OCC2CC2)c1)Nc1nnc(N[C@@H]2CCN(c3cccnn3)C2)s1 | 
